In one data set the test system is HepG2 or HepG2.117 cells. Kind of data set: Cytotoxicity, ATPlite Luminescence Assay. The data set is classed as cell-based, human. The following applies: 3-days incubation unless marked with *, ATPlite viability. A digest of the protocol: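 Luminescent ATP quantitation served as the viability endpoint following a 3- or 4-day incubation with test compounds.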
A general note: ATP-based viability assays read luminescence as a measure of living cells.

Data set [1] can be described thus: Human liver microsome stability. The data set is classed as in vitro ADME. The following applies: pooled human liver microsomes 0.5 mg/mL, 1 μM compound, NADPH 1 mM, pH 7.4, 37° C., 0-60 min. In outline: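 Pooled human liver microsomes (0.5 mg/mL) incubated at 37 °C with 1 μM compound in 0.1 M phosphate pH 7.4, 1 mM MgCl2; 1 mM NADPH starts reaction. Samples quenched in acetonitrile at 0–60 min, analysed by LC-MS against internal standard; half-life from slope of ln peak-area ratio versus time.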
(In general: Liver microsomes are a subcellular fraction often used to study metabolism.)

In another data set the test system is HBV. Put plainly: Anti-HBV activity in HepG2.117 cell line (intracellular HBV DNA, real-time PCR). The following applies: HepG2.117 cells, HBV replication induced, 3 days of treatment, intracellular HBV DNA by real-time PCR. The data set is classed as cell-based, hepatitis B virus. A digest of the protocol: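 HepG2.117 cells (Tet-off, doxycycline-free HBV replication) induced for HBV replication, then exposed to serially diluted compound for 3 days. Intracellular HBV DNA quantified by real-time PCR with HBV-specific primers and probe.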
(Quantitative PCR measures a nucleic acid by following its amplification.)

As usually defined, the CC50 is the concentration at which the toxic effect on the cells reaches its halfway point. High values mean lower toxicity to the cells, low ones greater toxicity to the cells. As a reminder, the EC50 is the midpoint of the concentration-response curve. Low readings indicate a more potent agent, high ones a less potent agent. In the data set with HepG2 or HepG2.117 cells, `CNC(=O)[C@@H]1CN(C(C)c2ccc(NCC(F)(F)F)nc2)C(=O)c2c3c(nn21)C[C@@H](C)N(C(=O)c1ccc(Cl)c(Cl)c1)C3` (single isomer, unassigned) [Compound 33B, (3R,7S)-2-(3,4-dichlorobenzoyl)-N,3-dimethyl-10-oxo-9-((S*)-1-(6-((2,2,2-trifluoroethyl)amino)pyridin-3-yl)ethyl)-1,2,3,4,7,8,9,10-octahydropyrido[4′,3′:3,4]pyrazolo[1,5-a]pyrazine-7-carboxamide] yielded a CC50 of over 50 µM. For the same compound, the “HLM Metabolism t1/2” value in data set [1] was over 3 h. The same compound displayed an EC50 in the data set with HBV of 0.055 µM.

The compound `CNC(=O)[C@@H]1CN(C(C)c2cc(F)ccn2)C(=O)c2c3c(nn21)C[C@@H](C)N(C(=O)c1ccc(Cl)c(Cl)c1)C3` (single isomer, unassigned) [Compound 42B, (3R,7S)-2-(3,4-dichlorobenzoyl)-9-((S*)-1-(4-fluoropyridin-2-yl)ethyl)-N,3-dimethyl-10-oxo-1,2,3,4,7,8,9,10-octahydropyrido[4′,3′:3,4]pyrazolo[1,5-a]pyrazine-7-carboxamide] came in with a 50% cytotoxic concentration (CC50) in the data set on HepG2 or HepG2.117 cells of over 50 µM. In addition, in data set [1], the “HLM Metabolism t1/2” value was over 3 h. In the data set on HBV, this compound gave an EC50 of 0.02 µM.

Compound `CNC(=O)[C@@H]1CN(C(C)c2ccc(-n3ncnc3C)cn2)C(=O)c2c3c(nn21)C[C@@H](C)N(C(=O)c1ccc(Cl)c(Cl)c1)C3` (single isomer, unassigned) [Compound 41B, (3R,7S)-2-(3,4-dichlorobenzoyl)-N,3-dimethyl-9-((S*)-1-(5-(5-methyl-1H-1,2,4-triazol-1-yl)pyridin-2-yl)ethyl)-10-oxo-1,2,3,4,7,8,9,10-octahydropyrido[4′,3′:3,4] pyrazolo[1,5-a]pyrazine-7-carboxamide] yielded a CC50 with HepG2 or HepG2.117 cells of over 50 µM. In addition, the “HLM Metabolism t1/2” value in data set [1] is over 3 h. The midpoint of the response in the data set with HBV, the EC50, lay at 0.1 µM.

Turning to `CNC(=O)[C@@H]1CN(C(C)c2cccc(Cl)n2)C(=O)c2c3c(nn21)C[C@@H](C)N(C(=O)c1ccc(Cl)c(Cl)c1)C3` (single isomer, unassigned) [Compound 38B, (3R,7S)-9-((S*)-1-(6-chloropyridin-2-yl)ethyl)-2-(3,4-dichlorobenzoyl)-N,3-dimethyl-10-oxo-1,2,3,4,7,8,9,10-octahydropyrido[4′,3′:3,4]pyrazolo[1,5-a]pyrazine-7-carboxamide], the cytotoxic concentration (CC50) with HepG2 or HepG2.117 cells is over 50 µM. In addition, the “HLM Metabolism t1/2” value in data set [1] is 2.4 h. Besides, the EC50 in the data set on HBV was determined as 0.04 µM.

Consider `CNC(=O)[C@@H]1CN(C(C)c2cnc(C(F)(F)F)nc2)C(=O)c2c3c(nn21)C[C@@H](C)N(C(=O)c1ccc(Cl)c(C(F)(F)F)c1)C3` (single isomer, unassigned) [Compound 43B, (3R,7S)-2-(4-chloro-3-(trifluoromethyl)benzoyl)-N,3-dimethyl-10-oxo-9-((S*)-1-(2-(trifluoromethyl)pyrimidin-5-yl)ethyl)-1,2,3,4,7,8,9,10-octahydropyrido[4′,3′:3,4]pyrazolo[1,5-a]pyrazine-7-carboxamide], for which the cytotoxic concentration (CC50) with HepG2 or HepG2.117 cells was over 50 µM. Further, the “HLM Metabolism t1/2” value in data set [1] was over 3 h. In the data set on HBV, this compound showed an EC50 of 0.057 µM.

The compound `CC(c1ccc(OC(F)F)nc1)N1C[C@@H](C(N)=O)n2nc3c(c2C1=O)CN(C(=O)c1ccc(Cl)c(Cl)c1)[C@H](C)C3` (single isomer, unassigned) [Compound 12B, (3R,7S)-2-(3,4-dichlorobenzoyl)-9-((S*)-1-(6-(difluoromethoxy)pyridin-3-yl)ethyl)-3-methyl-10-oxo-1,2,3,4,7,8,9,10-octahydropyrido[4′,3′:3,4]pyrazolo[1,5-a]pyrazine-7-carboxamide] came in with a CC50 in the data set with HepG2 or HepG2.117 cells of 27.4 µM. In data set [1], the “HLM Metabolism t1/2” value was over 3 h. Moreover, the 50% effective concentration (EC50) in the data set on HBV came to 0.027 µM.

In the data set on HepG2 or HepG2.117 cells, `CNC(=O)[C@@H]1CN(C(C)c2ccc(C(F)F)nc2)C(=O)c2c3c(nn21)C[C@@H](C)N(C(=O)c1ccc(Cl)c(Cl)c1)C3` (single isomer, unassigned) [Compound 36B, (3R,7S)-2-(3,4-dichlorobenzoyl)-9-((S*)-1-(6-(difluoromethyl)pyridin-3-yl)ethyl)-N,3-dimethyl-10-oxo-1,2,3,4,7,8,9,10-octahydropyrido[4′,3′:3,4]pyrazolo[1,5-a]pyrazine-7-carboxamide] displayed a 50% cytotoxic concentration (CC50) of over 50 µM. Further, the “HLM Metabolism t1/2” value in data set [1] is over 3 h. This compound also gave an EC50 in the data set with HBV of 0.05 µM.

As to `CNC(=O)[C@@H]1CN(C(C)c2ccc(S(=O)(=O)C3CC3)cc2)C(=O)c2c3c(nn21)C[C@@H](C)N(C(=O)c1ccc(Cl)c(C(F)(F)F)c1)C3` (single isomer, unassigned) [Compound 20B, (3R,7S)-2-(4-Chloro-3-(trifluoromethyl)benzoyl)-9-((S*)-1-(4-(cyclopropylsulfonyl)phenyl)ethyl)-N,3-dimethyl-10-oxo-1,2,3,4,7,8,9,10-octahydropyrido[4′,3′:3,4]pyrazolo[1,5-a]pyrazine-7-carboxamide], the CC50 in the data set on HepG2 or HepG2.117 cells was over 50 µM. In addition, in data set [1], the “HLM Metabolism t1/2” value was over 3 h. This compound also gave an EC50 in the data set with HBV of 0.022 µM.

For `CNC(=O)[C@@H]1CN(C(C)c2ccc(-c3nnnn3C)cc2)C(=O)c2c3c(nn21)C[C@@H](C)N(C(=O)c1ccc(Cl)c(Cl)c1)C3` (single isomer, unassigned) [Compound 29B, (3R,7S)-2-(3,4-dichlorobenzoyl)-N,3-dimethyl-9-((S*)-1-(4-(1-methyl-1H-tetrazol-5-yl)phenyl)ethyl)-10-oxo-1,2,3,4,7,8,9,10-octahydropyrido[4′,3′:3,4]pyrazolo[1,5-a]pyrazine-7-carboxamide], the CC50 with HepG2 or HepG2.117 cells was over 50 µM. The “HLM Metabolism t1/2” value in data set [1] is over 3 h. In addition, a half-maximal response with HBV (EC50) required 0.082 µM.

In the data set with HepG2 or HepG2.117 cells, `CC(c1ccc(OC(F)F)cc1)N1C[C@@H](C(=O)NC2CC2)n2nc3c(c2C1=O)CN(C(=O)c1ccc(Cl)c(C#N)c1)[C@H](C)C3` (single isomer, unassigned) [Compound 26B, (3R,7S)-2-(4-chloro-3-cyanobenzoyl)-N-cyclopropyl-9-((S*)-1-(4-(difluoromethoxy)phenyl)ethyl)-3-methyl-10-oxo-1,2,3,4,7,8,9,10-octahydropyrido[4′,3′:3,4]pyrazolo[1,5-a]pyrazine-7-carboxamide] came in with a CC50 of over 50 µM. In addition, the “HLM Metabolism t1/2” value in data set [1] is 1.12 h. This compound also registered a concentration giving a half-maximal response (EC50) in the data set on HBV of 0.09 µM.

The compound `CCC(c1ccc(S(C)(=O)=O)cc1)N1C[C@@H](C(=O)NC)n2nc3c(c2C1=O)CN(C(=O)c1ccc(Cl)c(Cl)c1)[C@H](C)C3` (single isomer, unassigned) [Compound 22B, (3R,7S)-2-(3,4-dichlorobenzoyl)-N,3-dimethyl-9-((S*)-1-(4-(methylsulfonyl)phenyl)propyl)-10-oxo-1,2,3,4,7,8,9,10-octahydropyrido[4′,3′:3,4]pyrazolo[1,5-a]pyrazine-7-carboxamide] yielded a half-maximal cytotoxic concentration (CC50) in the data set on HepG2 or HepG2.117 cells of over 50 µM. For the same compound, the “HLM Metabolism t1/2” value in data set [1] is over 3 h. In the data set with HBV, this compound showed an EC50 of 0.05 µM.

For `CNC(=O)[C@@H]1CN(C(C)c2ccc(OC)nc2)C(=O)c2c3c(nn21)C[C@@H](C)N(C(=O)c1ccc(Cl)c(Cl)c1)C3` (single isomer, unassigned) [Compound 31B, (3R,7S)-2-(3,4-dichlorobenzoyl)-9-((S*)-1-(6-methoxypyridin-3-yl)ethyl)-N,3-dimethyl-10-oxo-1,2,3,4,7,8,9,10-octahydropyrido[4′,3′:3,4]pyrazolo[1,5-a]pyrazine-7-carboxamide], the cytotoxic concentration (CC50) in the data set on HepG2 or HepG2.117 cells is over 50 µM. For the same compound, in data set [1], the “HLM Metabolism t1/2” value is over 3 h. The same compound displayed an EC50 in the data set on HBV of 0.018 µM.

The compound `CNC(=O)[C@@H]1CN(C(C)c2ccc(N3CCCC3=O)nc2)C(=O)c2c3c(nn21)C[C@@H](C)N(C(=O)c1ccc(Cl)c(Cl)c1)C3` (relative stereo) [Compound 34B, (3R,7S)-2-(3,4-dichlorobenzoyl)-N,3-dimethyl-O-oxo-9-((S*)-1-(6-(2-oxopyrrolidin-1-yl)pyridin-3-yl)ethyl)-1,2,3,4,7,8,9,10-octahydropyrido[4′,3′:3,4]pyrazolo[1,5-a]pyrazine-7-carboxamide] came in with a CC50 in the data set with HepG2 or HepG2.117 cells of over 50 µM. The “HLM Metabolism t1/2” value in data set [1] is over 3 h. The compound further came in with an EC50 with HBV of 0.049 µM.

As for `CNC(=O)[C@@H]1CN(C(C)c2ccc(OC(F)F)nc2)C(=O)c2c3c(nn21)C[C@@H](C)N(C(=O)c1ccc(Cl)c(Cl)c1)C3` (single isomer, unassigned) [Compound 11B, (3R,7S)-2-(3,4-dichlorobenzoyl)-9-((S*)-1-(6-(difluoromethoxy)pyridin-3-yl)ethyl)-N,3-dimethyl-10-oxo-1,2,3,4,7,8,9,10-octahydropyrido[4′,3′:3,4]pyrazolo[1,5-a]pyrazine-7-carboxamide], the CC50 in the data set with HepG2 or HepG2.117 cells worked out at 23.4 µM. In addition, the “HLM Metabolism t1/2” value in data set [1] is over 3 h. This compound showed an EC50 in the data set with HBV of 0.052 µM.

In the data set with HepG2 or HepG2.117 cells, `CNC(=O)[C@@H]1CN(C(C)c2ccc(OC(F)F)c(F)c2)C(=O)c2c3c(nn21)C[C@@H](C)N(C(=O)c1ccc(Cl)c(Cl)c1)C3` (single isomer, unassigned) [Compound 24B, (3R,7S)-2-(3,4-dichlorobenzoyl)-9-((S*)-1-(4-(difluoromethoxy)-3-fluorophenyl)ethyl)-N,3-dimethyl-10-oxo-1,2,3,4,7,8,9,10-octahydropyrido[4′,3′:3,4]pyrazolo[1,5-a]pyrazine-7-carboxamide] had a CC50 of 25.5 µM. In data set [1], the “HLM Metabolism t1/2” value was over 3 h. In the data set with HBV, the EC50 came to 0.013 µM.

For the origin of these results see patent US20240279227A1, “FUSED HETEROCYCLIC DERIVATIVES” (Janssen Sciences Ireland Unlimited Company, priority 2021, published 2024).
